Assay results taken from patent US9193731B2, “Antimicrobial compounds and methods of making and using the same” (Melinta Therapeutics, Inc., priority 2009, dated 2015).

What follows are molecules tested on Escherichia coli strain ATCC25922 (assay: standard microdilution assay to determine minimum inhibitory concentrations (MICs)). Conditions: Escherichia coli strain ATCC25922, microdilution.
Assay type: cell-based
How it was run: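 E. coli strain ATCC25922 tested per CLSI microdilution methodology (about 100 microliters per well) to find minimum inhibitory concentrations. Activity scored categorically at a 16 micrograms/ml threshold.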

| Compound | E. coli ATCC25922 MIC |
| --- | --- |
| N=C(N)NCCCNCc1ccc(-n2cc3cc(-c4cccc(S(=O)(=O)N(CCCC5CCCC5)C5CCNCC5)c4)[nH]c3nc2=O)cc1 [Compound 1047] | + (a “+” indicates that the compound has an MIC value of 16 micrograms/ml or less) |
| N=C(N)NCCCNCc1ccc(-n2cc3cc(C4CCCN(CC(O)CN)C4)[nH]c3nc2=O)cc1 (stereo not shown) [Compound 1422] | + (a “+” indicates that the compound has an MIC value of 16 micrograms/ml or less) |
| N=C(N)NCCCNC(=O)c1ccc(-n2cc3cc(-c4cccc(OC[C@@H](O)CN)c4)[nH]c3nc2=O)cc1 [Compound 1399] | + (a “+” indicates that the compound has an MIC value of 16 micrograms/ml or less) |
| N=C(N)NCCCNCc1ccc(-n2cc3cc(-c4cc(C(=O)NCC(F)F)cc(N5CCNCC5)c4)[nH]c3nc2=O)cc1 [Compound 970] | + (a “+” indicates that the compound has an MIC value of 16 micrograms/ml or less) |
| N=C(N)NCCCNCc1ccc(-n2cc3cc(-c4cc(C(=O)NCC(F)(F)F)cc(N5CCNCC5)c4)[nH]c3nc2=O)cc1 [Compound 971] | + (a “+” indicates that the compound has an MIC value of 16 micrograms/ml or less) |
| N=C(N)NCCCCc1cc(OC(F)(F)F)cc(-c2cc3cn(-c4ccc(C(NCCCNC(=N)N)C(F)(F)F)cc4)c(=O)nc3[nH]2)c1 (stereo not shown) [Compound 2082a] | + (a “+” indicates that the compound has an MIC value of 16 micrograms/ml or less) |
| N=C(N)NCCCNCc1ccc(-n2cc3cc(-c4ccc(S(=O)(=O)CCCNC5CCNC5)cc4)[nH]c3nc2=O)cc1 (stereo not shown) [Compound 1330] | + (a “+” indicates that the compound has an MIC value of 16 micrograms/ml or less) |
| N=C(N)NCCCNCc1ccc(-n2cc3cc(C4CCCN(CCCN5CCOCC5)C4)[nH]c3nc2=O)cc1 (stereo not shown) [Compound 2044a] | + (a “+” indicates that the compound has an MIC value of 16 micrograms/ml or less) |
| N=C(N)NCCCNCc1ccc(-n2cc3cc(-c4ccc(S(=O)(=O)N(CCOc5ccc(F)cc5)C5CCOCC5)cc4)[nH]c3nc2=O)cc1 [Compound 880] | − (a “−” indicates that the compound has an MIC value greater than 16 micrograms/ml) |
| N=C(N)NCCCNCc1ccc(-n2cc3cc(-c4ccc(S(=O)(=O)NC5CNC5)cc4)[nH]c3nc2=O)cc1 [Compound 1122] | + (a “+” indicates that the compound has an MIC value of 16 micrograms/ml or less) |
| N=C(N)NCCCNCc1ccc(-n2cc3cc(-c4cc(OC(F)(F)F)cc(S(=O)(=O)NCCN)c4)[nH]c3nc2=O)cc1 [Compound 2059a] | + (a “+” indicates that the compound has an MIC value of 16 micrograms/ml or less) |
| CNCc1ccc(-n2cc3cc(-c4ccc(S(=O)(=O)N(Cc5ccc(Cl)c(Cl)c5)C5CCNCC5)cc4)[nH]c3nc2=O)cc1 [Compound 933] | − (a “−” indicates that the compound has an MIC value greater than 16 micrograms/ml) |
| N=C(N)NCCCNCc1ccc(-n2cc3cc(-c4cc(OCC(F)CN)cc(-c5ccc([N+](=O)[O-])cc5)c4)[nH]c3nc2=O)cc1 (stereo not shown) [Compound 2027a] | + (a “+” indicates that the compound has an MIC value of 16 micrograms/ml or less) |
| N=C(N)NCCCNCc1ccc(-n2cc3cc(-c4ccc(S(=O)(=O)N(Cc5cc(OC(F)(F)F)ccc5F)C5CCOCC5)cc4)[nH]c3nc2=O)cc1 [Compound 879] | + (a “+” indicates that the compound has an MIC value of 16 micrograms/ml or less) |
| N=C(N)NCCCNC(=O)c1ccc(-n2cc3cc(-c4ccc(S(=O)(=O)CCCNC5CCNCC5)cc4)[nH]c3nc2=O)cc1 [Compound 1261] | + (a “+” indicates that the compound has an MIC value of 16 micrograms/ml or less) |
| N=C(N)NCCCNCc1ccc(-n2cc3cc(-c4cc(C(=O)N5CCC(F)(F)CC5)cc(N5CCNCC5)c4)[nH]c3nc2=O)cc1 [Compound 1074] | + (a “+” indicates that the compound has an MIC value of 16 micrograms/ml or less) |
| N=C(N)NCCCNCc1ccc(-n2cc3cc(-c4ccc(S(=O)(=O)CCCNC5CCCOC5)cc4)[nH]c3nc2=O)cc1 (stereo not shown) [Compound 1275] | + (a “+” indicates that the compound has an MIC value of 16 micrograms/ml or less) |

Same assay, conditions: Escherichia coli, ATCC25922, Escherichia coli strain ATCC25922, microdilution; read-out: E. coli ATCC25922 MIC

| Compound | MIC |
| --- | --- |
| NCCCNCc1ccc(-c2cn3cc(-c4ccc(Br)cc4)[nH]c3nc2=O)cc1 [Compound 617, 6-{4-[(3-Amino-propylamino)-methyl]-phenyl}-2-(4-bromo-phenyl)-1H-imidazo[1,2-a]pyrimidin-7-one] | > 16 µg/mL |
| C=Cc1cc2cn(-c3ccc(C(=O)NCCCNC(=N)N)cc3)c(=O)nc2[nH]1 [Compound 1112] | > 16 µg/mL |
| NCCCNCc1ccc(-c2cn3cc(-c4ccc(C(=O)N5CCNCC5)cc4)[nH]c3nc2=O)cc1 [Compound 682, 6-{4-[(3-Amino-propylamino)-methyl]-phenyl}-2-[4-(piperazine-1-carbonyl)-phenyl]-1H-imidazo[1,2-a]pyrimidin-7-one] | < 16 µg/mL |
| CS(=O)(=O)c1ccc(-c2cn3cc(-c4ccc(CN(CCCN)CCCNC(=N)N)cc4)c(=O)nc3[nH]2)cc1 [Compound 635] | < 16 µg/mL |
| NCCCNCc1ccc(-n2cc3cc(CCNC4CCNCC4)[nH]c3nc2=O)cc1 [Compound 687] | < 16 µg/mL |
| NCCCNCc1ccc(-n2cc3cc(COc4ccccc4)[nH]c3nc2=O)cc1 [Compound 626] | > 16 µg/mL |
| NCc1ccc(-n2cc3cc(-c4cccc(OCCCc5ccc(Cl)cc5)c4)[nH]c3nc2=O)cc1 [Compound 1128] | > 16 µg/mL |
| NCCCNCc1ccc(-n2cc3cc(-c4ccc(C(=O)NC5CCNCC5)cc4)[nH]c3nc2=O)cc1 [Compound 227] | < 16 µg/mL |
| N=C(N)NCCCNCc1ccc(-n2cc3cc(-c4cccc(N5CCNCC5)c4)[nH]c3nc2=O)cc1 [Compound 655] | < 16 µg/mL |
| O=c1nc2[nH]c(-c3ccc(S(=O)(=O)NC4CCNCC4)cc3F)cc2cn1-c1ccc(CNCCCCl)cc1 [Compound 250] | > 16 µg/mL |
| N=C(N)NCCCNCc1ccc(-c2cn3cc(-c4ccc(C(=O)N5CCN(CCO)CC5)cc4)[nH]c3nc2=O)cc1 [Compound 713] | < 16 µg/mL |
